Results: patent US20030190368A1, “METHODS OF DIAGNOSIS AND TRIAGE USING CELL ACTIVATION MEASURES” (priority 1998, published 2003)

Legend:
[1] = pH and solubility of Futhan; type: physicochemical
Experimental: The reasons for the ineffectiveness of Futhan in ameliorating SAO shock in initial experiments appeared to be due to the pH of Futhan in solution, which is approximately 3.5 at the concentration of I mg/ml in 5% glucose-deionized (DI) water as per the manufacturer's instructions. Under the established protocol, approximately 2 ml of this solution were injected at the rate of 0.05 ml every 5 minutes into an approximate rat blood volume of 20 ml. In sham-shocked animals (not reported here) the buffering capacity of blood is able to absorb any perturbations in pH. In shocked animals, however, the pH buffering capacity, especially of the pancreas and small intestine, is severely compromised. Thus, the injection of Futhan would contribute to irreversible acidosis. […] Although the animals recovered from these transient depressions of MAP, Futhan injected animals typically expressed a lower MAP than the saline-injected group. This difference was not significant.

[2] = test system: rats; experiment: Bolus injection of pancreatic homogenate (mock SAO shock); type: in vivo
Experimental: A bolus injection of incubated pancreatic homogenate was tested for its ability to lead to circulatory shock in the rat. The ability of Futhan pretreatment to mitigate shock induced in this manner was also tested. A mock SAO shock protocol was repeated as previously described, with either 60 min Futhan or saline pretreatment and a 2 ml bolus injection of either pancreatic homogenate or low-molecular weight pancreatic homogenate injected in lieu of arterial clamping.
The SAO shock experiments were repeated with the bolus injection of pancreatic homogenate in an effort to simulate the “unclamping” of the arteries and liberation of pancreatic components into the circulation instead of the actual ischemia/reperfusion of the splanchnic region. The low-molecular weight (2 ml) as well whole homogenate (2 ml) were tested for their ability to induce hypotension and cause circulatory shock. The ability of Futhan to counter the effects of the injection of pancreatic homogenate was also tested as in the SAO shock protocol. At the termination of these experiments arterial blood was drawn for the determination of plasma peroxide concentration using the peroxide electrode measurement technique.

Compound: CS(=O)(=O)O.CS(=O)(=O)O.N=C(N)Nc1ccc(C(=O)Oc2ccc3cc(C(=N)N)ccc3c2)cc1 [Futhan, 6-amidino-2-naphthyl p-guanidinobenzoate dimethanesulfonate]
- pH of Futhan in solution ([1]; I mg/ml in 5% glucose-deionized (DI) water): approximately 3.5
- solubility ([1]; alcohol, rat serum, DMSO, balanced Tris (Trizma) buffer at physiologic pH): insoluble
- mortality after pancreatic homogenate injection in Futhan-pretreated rats ([2]; 60 minute post-injection observation period, Futhan 3.3 mg/kg body wt/hr): None of the Futhan-treated group died
- MAP after pancreatic homogenate injection in Futhan-pretreated rats ([2]; Futhan 3.3 mg/kg body wt/hr): MAP returned to nearly initial values
- blood pressure effect of Futhan infusion pretreatment ([2]; infusion pump 3.3 mg/kg body wt/hr): depression of MAP
